{
  "source": "ChEMBL document CHEMBL1150112",
  "about": "“Enhancement of contraction of rat mesenteric artery by acteoside: role of endothelial nitric oxide” (J Nat Prod, 2002)",
  "key": {"Mesenteric artery [1]": {"test_system": "Mesenteric artery", "assay": "Potentiation of phenylepinephrine-induced contraction in endothelium-intact Sprague-Dawley rat mesenteric artery at 100 to 300 umol/L after 30 mins", "assay_type": "functional, tissue-based"}, "Mesenteric artery [2]": {"test_system": "Mesenteric artery", "assay": "Potentiation of phenylepinephrine-induced contraction in endothelium-intact Sprague-Dawley rat mesenteric artery at 30 umol/L after 30 mins in presence of NG-nitro-L-arginine methyl ester", "assay_type": "functional, tissue-based"}, "Mesenteric artery [3]": {"test_system": "Mesenteric artery", "assay": "Potentiation of phenylepinephrine-induced contraction in endothelium-intact Sprague-Dawley rat mesenteric artery at 30 umol/L after 30 mins", "assay_type": "functional, tissue-based"}, "Artery [4]": {"test_system": "Artery", "assay": "Change in hydroxylamine-induced vasorelaxation in endothelium-denuded Sprague-Dawley rat mesenteric artery at 30 umol/L after 30 mins", "assay_type": "functional, tissue-based"}, "Artery [5]": {"test_system": "Artery", "assay": "Change in NS 1619-induced vasorelaxation in endothelium-denuded Sprague-Dawley rat mesenteric artery at 30 umol/L", "assay_type": "functional, tissue-based"}, "Mesenteric artery [6]": {"test_system": "Mesenteric artery", "assay": "Potentiation of phenylepinephrine-induced vessel tension in endothelium-intact Sprague-Dawley rat mesenteric artery at 30 umol/L in presence of pretreated indomethacin", "assay_type": "functional, tissue-based"}, "Artery [7]": {"test_system": "Artery", "assay": "Attenuation of forskolin-induced vasorelaxation in endothelium-denuded Sprague-Dawley rat mesenteric artery at 30 umol/L", "assay_type": "functional, tissue-based"}, "Mesenteric artery [8]": {"test_system": "Mesenteric artery", "assay": "Potentiation of phenylepinephrine-induced contraction in endothelium-intact Sprague-Dawley rat mesenteric artery at 30 umol/L after 30 mins in presence of NG-nitro-L-arginine", "assay_type": "functional, tissue-based"}, "Mesenteric artery [9]": {"test_system": "Mesenteric artery", "assay": "Enhancement of phenylepinephrine-induced contraction in endothelium-intact Sprague-Dawley rat mesenteric artery at 30 umol/L after 30 mins in presence of co-treated 1H-[1,2,4]oxadiazolo[…]quinoxalin-1-one", "assay_type": "functional, tissue-based"}, "Mesenteric artery [10]": {"test_system": "Mesenteric artery", "assay": "Potentiation of phenylepinephrine-induced contraction in endothelium-intact Sprague-Dawley rat mesenteric artery after 30 mins", "assay_type": "functional"}, "Mesenteric artery [11]": {"test_system": "Mesenteric artery", "assay": "Increase in phenylepinephrine-induced vessel tension in endothelium-intact Sprague-Dawley rat mesenteric artery at 30 umol/L in presence of tetraethylammonium", "assay_type": "functional, tissue-based"}, "[12]": {"assay": "Vasorelaxant activity in endothelium-intact Sprague-Dawley rat vascular smooth muscle at > 100 umol/L", "assay_type": "functional"}, "Artery [13]": {"test_system": "Artery", "assay": "Change in sodium nitroprusside-induced vasorelaxation in endothelium-denuded Sprague-Dawley rat mesenteric artery at 30 umol/L after 30 mins", "assay_type": "functional, tissue-based"}, "Artery [14]": {"test_system": "Artery", "assay": "Attenuation of acetylcholine-induced vasorelaxation in endothelium-intact Sprague-Dawley rat mesenteric artery at 30 umol/L after 30 mins", "assay_type": "functional, tissue-based"}, "Mesenteric artery [15]": {"test_system": "Mesenteric artery", "assay": "Potentiation of phenylepinephrine-induced contraction in endothelium-denuded Sprague-Dawley rat mesenteric artery at 30 umol/L after 30 mins", "assay_type": "functional, tissue-based"}},
  "note": "Activity calls are given as the source filed them. The calls are words filed in the database; no cut-off is given here.",
  "data": [
    {"smiles": "C[C@@H]1O[C@@H](O[C@@H]2[C@@H](O)[C@H](OCCc3ccc(O)c(O)c3)O[C@H](CO)[C@H]2OC(=O)/C=C/c2ccc(O)c(O)c2)[C@H](O)[C@H](O)[C@H]1O", "values": [
      {"measurement": "Activity", "setting": "Mesenteric artery [1]", "result": "inactive"},
      {"measurement": "Activity", "setting": "Mesenteric artery [2]", "result": "inactive"},
      {"measurement": "Activity", "setting": "Mesenteric artery [3]", "result": "Active"},
      {"measurement": "Activity", "setting": "Artery [4]", "result": "inactive"},
      {"measurement": "Activity", "setting": "Artery [5]", "result": "inactive"},
      {"measurement": "Activity", "setting": "Mesenteric artery [6]", "result": "Active"},
      {"measurement": "Activity", "setting": "Artery [7]", "result": "inactive"},
      {"measurement": "Activity", "setting": "Mesenteric artery [8]", "result": "inactive"},
      {"measurement": "Activity", "setting": "Mesenteric artery [9]", "result": "inactive"},
      {"measurement": "Activity", "setting": "Mesenteric artery [10]", "result": "Dose-dependent effect"},
      {"measurement": "Activity", "setting": "Mesenteric artery [11]", "result": "inactive"},
      {"measurement": "Activity", "setting": "[12]", "result": "Active"},
      {"measurement": "Activity", "setting": "Artery [13]", "result": "inactive"},
      {"measurement": "Activity", "setting": "Artery [14]", "result": "Active"},
      {"measurement": "Activity", "setting": "Mesenteric artery [15]", "result": "inactive"}
    ]}
  ]
}
